Source: patent publication US20230330254A1 (Regeneron Pharmaceuticals, Inc., priority 2022, published 2023)
Where a SMILES comes first, the peptide text is derived from it. [ ]: non-standard residue; d: D form. The star is where a group is joined. Bip(2'-Et,4'-O(CH2)4NH2) = CCc1cc(OCCCCN)ccc1-c1ccc(C[C@H](N)C(=O)O)cc1; Malonyl(2,2-Me2,histaminyl) = CC(C)(C(=O)NCCc1cnc[nH]1)C(=O)*; Nva(5-(3,5-Me2Ph)) = Cc1cc(C)cc(CCC[C@H](N)C(=O)O)c1; Ala(1H-tetrazol-5-yl) = N[C@@H](Cc1nnn[nH]1)C(=O)O; αMePhe(2-F) = C[C@](N)(Cc1ccccc1F)C(=O)O

How the values were obtained:
HEK293/CRE-Luc cells = assay: Luciferase reporter assay, HEK293/CRE-Luc cells without hGLP1R (Example 11); type: cell-based, human; details: Table 11; Experiment A; no hGLP1R expression
In short: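 Counter-screen in HEK293 cells carrying CRE-driven firefly luciferase without hGLP1R; 3-fold serial dilutions of payloads or linker-payloads at 0.2% final DMSO, 4–6 h.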

human GLP1R [1] = molecular target: T1, human GLP1R (Homo sapiens, UniProt P43220); assay: CRE-luciferase reporter assay, HEK293/Myc-hGLP1R/Cre-Luc (Example 9); type: cell-based; parameters: engineered to express full-length human GLP1R, cynomolgus GLP1R; expressed in transfected cells; host or cells: HEK293/CRE-Luc
Experimental: (§1) To test the activity of GLP1R agonist payloads and GLP1R agonist linker-payloads (LPs) in vitro, a cell-based cAMP responsive luciferase reporter assay was developed.
(§2) Cells were incubated overnight at 37° C. in 5% CO2. […] Plates were incubated for 5.5 h at 37° C. in 5% CO2. For end-point measurement, 100 μL/well of One-Glo reagent (Promega, #E6051) was added and plates were kept at room temperature for 5-10 minutes. Luciferase activity was measured on Envision Multilabel Plate Reader (Perkin Elmer) in Luminescent mode. The relative light units (RLU) values were obtained and the results were analyzed using nonlinear regression with GraphPad Prism software (GraphPad).

human GLP1R [2] = molecular target: T1, human GLP1R; assay: Luciferase reporter assay, HEK293/CRE-Luc/hGLP1R (Example 17); type: cell-based; parameters: engineered to express full-length human GLP1R, cynomolgus GLP1R; expressed in transfected cells; host or cells: HEK293/CRE-Luc; details: HEK293/CRE-Luc/hGLP1R; for EC50: payloads and linker-payloads, experiments A-E, M2361 repeated in each, read-out: EC50
In short: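 HEK293 cells carrying a CRE-driven firefly luciferase reporter were exposed to 3-fold serial dilutions of payloads or linker-payloads (12 points, 0.2% DMSO final) for 4–6 h, then luminescence was read. EC50 came from a four-parameter logistic fit; S/N is top RLU over untreated wells, and relative potency and S/N are referenced to M2361.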

[3] = molecular target: T2, human gastric inhibitory polypeptide receptor (GIPR) (Homo sapiens, UniProt P48546); assay: CRE-luciferase reporter assay, HEK293/Myc-hGIPR/Cre-Luc (Example 9); type: cell-based; parameters: Myc; expressed in transfected cells; details: Table 5C
T2 sequence (P48546 22-466): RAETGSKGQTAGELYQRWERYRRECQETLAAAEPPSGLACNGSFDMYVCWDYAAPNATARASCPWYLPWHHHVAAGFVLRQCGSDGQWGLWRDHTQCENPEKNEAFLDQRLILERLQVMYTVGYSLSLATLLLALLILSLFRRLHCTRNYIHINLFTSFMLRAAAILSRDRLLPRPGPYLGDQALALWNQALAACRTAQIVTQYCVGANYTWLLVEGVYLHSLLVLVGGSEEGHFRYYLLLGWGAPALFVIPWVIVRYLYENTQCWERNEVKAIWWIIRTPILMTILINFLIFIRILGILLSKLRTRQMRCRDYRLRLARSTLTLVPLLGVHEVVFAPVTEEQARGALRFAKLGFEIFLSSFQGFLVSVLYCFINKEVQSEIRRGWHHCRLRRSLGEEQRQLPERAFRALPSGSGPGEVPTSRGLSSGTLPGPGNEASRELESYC
Experimental: as §1, §2

[4] = highest RLU / RLU of untreated wells
[5] = relative to M2361 of the same experiment
[6] = ATDCs and references (Table 27)

T1 sequence (P43220 24-463): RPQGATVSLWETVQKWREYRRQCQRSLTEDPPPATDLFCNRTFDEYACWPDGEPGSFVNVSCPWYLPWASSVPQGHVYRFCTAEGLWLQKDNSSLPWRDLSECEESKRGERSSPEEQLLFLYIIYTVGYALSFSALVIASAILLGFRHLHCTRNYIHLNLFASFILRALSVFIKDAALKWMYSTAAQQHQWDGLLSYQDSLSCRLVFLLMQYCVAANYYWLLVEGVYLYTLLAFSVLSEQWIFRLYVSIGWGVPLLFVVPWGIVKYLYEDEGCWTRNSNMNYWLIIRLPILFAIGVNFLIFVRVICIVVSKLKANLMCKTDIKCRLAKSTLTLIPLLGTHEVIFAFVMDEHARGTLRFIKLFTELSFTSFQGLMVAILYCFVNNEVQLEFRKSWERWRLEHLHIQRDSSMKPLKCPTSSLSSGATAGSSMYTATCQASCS

Row | SMILES | EC50 (HEK293/CRE-Luc cells) [nM] | HEK293/CRE-LUC S/N (HEK293/CRE-Luc cells) | EC50 (human GLP1R [1]; Table 9, 5.5 h, read-out: HEK293/Myc-hGLP1R/Cre-Luc EC50) [nM] | S/N (human GLP1R [2]; [4]) | EC50 (human GLP1R [2]) [nM] | Relative Potency (% M2361 EC50) (human GLP1R [2]; [5]) [%] | Relative Signal:Noise (% M2361) (human GLP1R [2]; [5]) [%] | GIPR EC50 (nM) [3] | EC50 (human GLP1R [1]; Table 5C, read-out: GLP1R LUC EC50) [nM] | EC50 (human GLP1R [1]; Table 9, […], read-out: HEK293/Myc-hGLP1R/Cre-Luc EC50) [nM] | Relative Potency (% M2361 EC50) (human GLP1R [2]; [6]) [%] | Relative Signal:Noise (% M2361) (human GLP1R [2]; [6]) [%] | S/N (human GLP1R [2]; [6])
1 | CCc1cc(OCCCCN)ccc1-c1ccc(C[C@H](NC(=O)[C@H](CC(=O)O)NC(=O)[C@H](CO)NC(=O)[C@@H](NC(=O)[C@](C)(Cc2ccccc2F)NC(=O)[C@@H](NC(=O)CNC(=O)[C@H](Cc2nn[nH]n2)NC(=O)C(C)(C)C(=O)NCCc2cnc[nH]2)[C@@H](C)O)[C@@H](C)O)C(=O)N[C@@H](CCCc2cc(C)cc(C)c2)C(N)=O)cc1 [P9, (8S,14S,17S,20S,23S,26S)-8-((2H-tetrazol-5-yl)methyl)-26-(((S)-1-(((S)-1-amino-5-(3,5-dimethylphenyl)-1-oxopentan-2-yl)amino)-3-(4′-(4-aminobutoxy)-2′-ethyl-[1,1′-biphenyl]-4-yl)-1-oxopropan-2-yl)carbamoyl)-17-(2-fluorobenzyl)-14,20-bis((R)-1-hydroxyethyl)-23-(hydroxymethyl)-1-(1H-imidazol-5-yl)-5,5,17-trimethyl-4,6,9,12,15,18,21,24-octaoxo-3,7,10,13,16,19,22,25-octaazaoctacosan-28-oic acid] ({Malonyl(2,2-Me2,histaminyl)}-[Ala(1H-tetrazol-5-yl)]GT[αMePhe(2-F)]TSD[Bip(2'-Et,4'-O(CH2)4NH2)][Nva(5-(3,5-Me2Ph))]-NH2) | > 200 | 1.3 | 0.00332 | 75.2 | 0.00397 | 133.8 | 114.3 | – | – | – | – | – | –
2 | CCc1cc(OCCCCn2cc(COCCOCCOCCOCCOCCOCCOCCOCCN)nn2)ccc1-c1ccc(C[C@H](NC(=O)[C@H](CC(=O)O)NC(=O)[C@H](CO)NC(=O)[C@@H](NC(=O)C(C)(Cc2ccccc2F)NC(=O)[C@@H](NC(=O)CNC(=O)[C@H](Cc2nn[nH]n2)NC(=O)C(C)(C)C(=O)NCCc2cnc[nH]2)[C@@H](C)O)[C@@H](C)O)C(=O)N[C@@H](CCCc2cc(C)cc(C)c2)C(N)=O)cc1 (stereo partly shown) [LP11, NH2-PEG8-triazole-P8] | > 200 | 1.3 | – | – | – | – | – | Completely inactive | 0.016 | 0.016 | – | – | –
3 | CCc1cc(OCCCCn2cc(COCCOCCOCCOCCOCCOCCOCCOCCN)nn2)ccc1-c1ccc(C[C@H](NC(=O)[C@H](CC(=O)O)NC(=O)[C@H](CO)NC(=O)[C@@H](NC(=O)[C@](C)(Cc2ccccc2F)NC(=O)[C@@H](NC(=O)CNC(=O)[C@H](Cc2nn[nH]n2)NC(=O)C(C)(C)C(=O)NCCc2cnc[nH]2)[C@@H](C)O)[C@@H](C)O)C(=O)N[C@@H](CCCc2cc(C)cc(C)c2)C(N)=O)cc1 [M3190] | – | – | – | 74.5 | 0.0161 | 33.1 | 113.3 | – | – | – | 44.0 | 96.4 | 62.0
